Experimental data published in paper PMC4378623, “Plant membrane assays with cytokinin receptors underpin the unique role of free cytokinin bases as biologically active ligands” (Journal of Experimental Botany, 2015).

Tests used:
AHK3 [1] = target: T1, AHK3 (Arabidopsis thaliana, UniProt Q9C5U1); assay: biochemical
T1 sequence (Q9C5U1 1-1036): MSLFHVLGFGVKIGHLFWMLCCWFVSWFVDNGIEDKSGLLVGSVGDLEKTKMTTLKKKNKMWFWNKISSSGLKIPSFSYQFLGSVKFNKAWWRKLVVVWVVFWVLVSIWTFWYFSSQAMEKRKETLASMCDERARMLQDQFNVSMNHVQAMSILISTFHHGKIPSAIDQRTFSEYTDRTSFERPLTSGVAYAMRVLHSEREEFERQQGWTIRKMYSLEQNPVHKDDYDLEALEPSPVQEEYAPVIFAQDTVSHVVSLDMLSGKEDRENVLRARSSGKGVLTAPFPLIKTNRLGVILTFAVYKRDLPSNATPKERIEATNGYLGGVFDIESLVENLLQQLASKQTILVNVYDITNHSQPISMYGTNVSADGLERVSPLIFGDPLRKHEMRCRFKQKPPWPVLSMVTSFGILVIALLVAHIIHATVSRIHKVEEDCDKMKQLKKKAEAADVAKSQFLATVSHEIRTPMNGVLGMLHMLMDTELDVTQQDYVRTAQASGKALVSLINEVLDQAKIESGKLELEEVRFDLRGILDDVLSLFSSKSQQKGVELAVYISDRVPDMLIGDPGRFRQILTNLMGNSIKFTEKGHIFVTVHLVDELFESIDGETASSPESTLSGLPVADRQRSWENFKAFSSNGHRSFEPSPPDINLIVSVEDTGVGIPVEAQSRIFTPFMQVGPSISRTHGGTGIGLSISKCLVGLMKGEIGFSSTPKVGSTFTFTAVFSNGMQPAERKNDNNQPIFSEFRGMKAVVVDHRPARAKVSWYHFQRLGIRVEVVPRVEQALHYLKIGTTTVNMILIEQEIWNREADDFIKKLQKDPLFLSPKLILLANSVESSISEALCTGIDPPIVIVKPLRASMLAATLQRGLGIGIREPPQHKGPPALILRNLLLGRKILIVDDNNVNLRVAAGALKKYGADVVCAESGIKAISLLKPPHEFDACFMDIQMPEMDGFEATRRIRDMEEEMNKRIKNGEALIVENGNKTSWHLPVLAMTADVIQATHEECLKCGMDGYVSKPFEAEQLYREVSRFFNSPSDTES
Excerpt: [3H]tZ saturation binding to plant microsomes, Scatchard on AHK3

AHK2 [2] = target: T2, AHK2 (Arabidopsis thaliana, UniProt Q9C5U2); assay: biochemical
T2 sequence (Q9C5U2 1-1176): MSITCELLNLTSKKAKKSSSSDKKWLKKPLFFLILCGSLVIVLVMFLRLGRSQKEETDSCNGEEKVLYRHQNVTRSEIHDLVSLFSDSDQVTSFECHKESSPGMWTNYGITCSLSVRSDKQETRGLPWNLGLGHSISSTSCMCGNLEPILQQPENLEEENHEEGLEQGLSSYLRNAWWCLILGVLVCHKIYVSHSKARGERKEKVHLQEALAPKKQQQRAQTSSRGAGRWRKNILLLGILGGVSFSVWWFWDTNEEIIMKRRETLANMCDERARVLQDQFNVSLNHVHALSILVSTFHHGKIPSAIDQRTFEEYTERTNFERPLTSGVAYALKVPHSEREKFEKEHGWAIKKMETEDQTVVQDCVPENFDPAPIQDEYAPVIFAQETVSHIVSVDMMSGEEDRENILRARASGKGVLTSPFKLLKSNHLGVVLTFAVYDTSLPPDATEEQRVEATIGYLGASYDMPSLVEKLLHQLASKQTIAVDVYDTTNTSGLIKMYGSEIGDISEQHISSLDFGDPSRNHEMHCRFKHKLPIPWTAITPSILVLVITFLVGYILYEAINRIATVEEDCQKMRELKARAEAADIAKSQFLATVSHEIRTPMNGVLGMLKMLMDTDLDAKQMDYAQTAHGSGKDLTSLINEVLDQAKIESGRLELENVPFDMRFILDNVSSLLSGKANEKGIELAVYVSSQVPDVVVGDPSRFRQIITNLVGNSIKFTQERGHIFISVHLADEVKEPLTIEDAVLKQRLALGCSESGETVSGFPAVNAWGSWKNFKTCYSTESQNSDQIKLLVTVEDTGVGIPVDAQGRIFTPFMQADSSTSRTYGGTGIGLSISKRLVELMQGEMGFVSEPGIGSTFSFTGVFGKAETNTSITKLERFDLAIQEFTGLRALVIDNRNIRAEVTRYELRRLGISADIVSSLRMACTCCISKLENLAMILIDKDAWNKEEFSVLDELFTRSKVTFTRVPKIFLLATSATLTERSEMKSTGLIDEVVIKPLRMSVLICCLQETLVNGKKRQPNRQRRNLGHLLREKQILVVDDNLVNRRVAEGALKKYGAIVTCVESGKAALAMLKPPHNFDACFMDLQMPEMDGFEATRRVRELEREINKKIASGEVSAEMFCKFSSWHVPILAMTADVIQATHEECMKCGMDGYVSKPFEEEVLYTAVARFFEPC
Excerpt: [3H]tZ saturation binding to plant microsomes, Scatchard on AHK2

ZmHK1 [3] = target: T3, ZmHK1 (Zea mays, UniProt Q9FRY7); assay: biochemical
T3 sequence (Q9FRY7 1-974): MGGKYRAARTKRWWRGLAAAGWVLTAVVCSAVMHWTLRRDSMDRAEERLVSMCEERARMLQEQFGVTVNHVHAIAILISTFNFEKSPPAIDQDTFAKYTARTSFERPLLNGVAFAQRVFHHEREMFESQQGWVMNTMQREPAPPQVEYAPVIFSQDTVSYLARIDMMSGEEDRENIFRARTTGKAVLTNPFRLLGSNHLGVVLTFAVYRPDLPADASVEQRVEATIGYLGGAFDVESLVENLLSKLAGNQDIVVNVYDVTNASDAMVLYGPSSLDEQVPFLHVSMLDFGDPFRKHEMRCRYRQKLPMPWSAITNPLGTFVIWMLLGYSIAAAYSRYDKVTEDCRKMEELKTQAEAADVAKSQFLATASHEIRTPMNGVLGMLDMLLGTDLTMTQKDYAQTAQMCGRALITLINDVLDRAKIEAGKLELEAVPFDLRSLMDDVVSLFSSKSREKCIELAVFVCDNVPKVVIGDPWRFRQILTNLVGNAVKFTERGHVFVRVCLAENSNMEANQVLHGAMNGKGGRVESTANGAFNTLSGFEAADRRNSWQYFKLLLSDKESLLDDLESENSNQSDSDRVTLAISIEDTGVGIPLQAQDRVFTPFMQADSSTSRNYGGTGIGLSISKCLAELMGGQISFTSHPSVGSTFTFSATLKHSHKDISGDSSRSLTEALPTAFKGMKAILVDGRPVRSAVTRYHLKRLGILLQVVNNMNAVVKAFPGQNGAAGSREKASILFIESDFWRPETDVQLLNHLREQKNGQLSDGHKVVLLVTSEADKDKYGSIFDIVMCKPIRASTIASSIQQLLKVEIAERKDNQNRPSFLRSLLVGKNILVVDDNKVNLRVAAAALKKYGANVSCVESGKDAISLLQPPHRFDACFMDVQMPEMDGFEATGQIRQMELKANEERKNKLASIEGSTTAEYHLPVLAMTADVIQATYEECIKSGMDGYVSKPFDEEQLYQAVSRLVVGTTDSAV
Excerpt: [3H]tZ saturation binding to plant microsomes, Scatchard on ZmHK1

AHK4 = AHK4 (Arabidopsis thaliana, UniProt Q9C5U0); assay: biochemical
AHK3 [4] = target: T1, AHK3; assay: competition with [3H]tZ, plant microsomes; assay type: binding; parameters: full-length cDNA in pB7FWG2-AHK3, C-terminal eGFP fusion, transiently expressed in Nicotiana benthamiana leaves, microsomes; settings: pH 7.4, 0-4 °C
Excerpt: competition with [3H]tZ, plant microsomes on AHK3

AHK2 [5] = target: T2, AHK2; assay: competition with [3H]tZ, plant microsomes; assay type: binding; settings: pH 7.4, 0-4 °C
Excerpt: competition with [3H]tZ, plant microsomes on AHK2

ZmHK1 [6] = target: T3, ZmHK1; assay: competition with [3H]tZ, plant microsomes; assay type: binding; parameters: full-length coding region in pB7FWG2-ZmHK1, C-terminal eGFP fusion, transiently expressed in Nicotiana benthamiana leaves, microsomes; settings: pH 7.4, 0-4 °C

AHK4, sequence (Q9C5U0 whole entry, the tested form may be a part): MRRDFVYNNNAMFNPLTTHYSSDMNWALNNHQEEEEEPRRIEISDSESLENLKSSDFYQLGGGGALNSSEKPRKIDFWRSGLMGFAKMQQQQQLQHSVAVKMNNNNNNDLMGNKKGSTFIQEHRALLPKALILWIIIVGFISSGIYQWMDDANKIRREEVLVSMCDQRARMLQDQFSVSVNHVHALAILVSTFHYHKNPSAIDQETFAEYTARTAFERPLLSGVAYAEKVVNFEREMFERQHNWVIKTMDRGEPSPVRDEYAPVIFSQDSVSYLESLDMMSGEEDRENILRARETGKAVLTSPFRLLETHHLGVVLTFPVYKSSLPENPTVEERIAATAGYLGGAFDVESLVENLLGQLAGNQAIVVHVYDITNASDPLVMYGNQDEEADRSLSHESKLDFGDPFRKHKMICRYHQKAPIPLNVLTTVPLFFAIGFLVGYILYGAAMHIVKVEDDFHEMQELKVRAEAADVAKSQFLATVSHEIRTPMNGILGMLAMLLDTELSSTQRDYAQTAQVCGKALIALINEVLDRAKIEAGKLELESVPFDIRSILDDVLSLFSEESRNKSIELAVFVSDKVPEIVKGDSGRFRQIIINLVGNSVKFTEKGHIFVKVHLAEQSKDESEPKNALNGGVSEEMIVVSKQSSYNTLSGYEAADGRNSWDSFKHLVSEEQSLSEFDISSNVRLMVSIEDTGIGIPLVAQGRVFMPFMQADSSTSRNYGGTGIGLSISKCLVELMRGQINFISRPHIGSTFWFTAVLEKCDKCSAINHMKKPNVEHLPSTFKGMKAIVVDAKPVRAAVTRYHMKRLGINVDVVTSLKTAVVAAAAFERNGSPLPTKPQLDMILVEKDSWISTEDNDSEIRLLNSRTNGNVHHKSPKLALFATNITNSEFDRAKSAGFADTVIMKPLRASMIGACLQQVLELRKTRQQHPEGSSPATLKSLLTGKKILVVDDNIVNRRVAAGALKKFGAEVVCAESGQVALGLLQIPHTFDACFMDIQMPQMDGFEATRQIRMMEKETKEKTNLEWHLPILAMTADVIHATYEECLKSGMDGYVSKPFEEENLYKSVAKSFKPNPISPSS

SMILES	Kd (AHK3 [1]) [nM]	Kd (AHK2 [2]) [nM]	Kd (ZmHK1 [3]) [nM]	Kd (AHK4) [nM]	Kd (AHK3 [4]) [nM]	Kd (AHK2 [5]) [nM]	Kd (ZmHK1 [6]) [nM]
C/C(=C\CNc1ncnc2[nH]cnc12)CO [tZ, trans-zeatin]	4.26 ± 1.69	1.93 ± 0.26	7.97 ± 1.96	2 to 8	–	–	–
Nc1ncnc2nc[nH]c12 [Ade, adenine]	–	–	–	–	> 10000	–	–
C[C@H](CO)CCNc1ncnc2nc[nH]c12 [DZ, dihydrozeatin]	–	–	–	–	33.1 ± 6.2	161 ± 55	128 ± 47
CC(C)=CCNc1ncnc2nc[nH]c12 [iP, isopentenyladenine]	–	–	–	–	42 ± 13.5	1.42 ± 0.52	0.61 ± 0.27
